We go through 3 compounds from publication PMC6977516, “An assessment of the interaction for three Chrysanthemum indicum flavonoids and α‐amylase by surface plasmon resonance” (Food Science & Nutrition, 2019).

For assay [1], the target named is T1, α-amylase (Bacillus subtilis, UniProt P00691).
T1 construct: purchased Shanghai Ryon Biological Technology Co. Ltd
The assay is described as follows: SPR binding assay of flavonoids to immobilized α-amylase. To be noted: for kon: pH 6, read-out: Ka (association rate constant); for koff: pH 6, read-out: Kd (dissociation rate constant) × 10^–3. The protocol:
A commercial BI‐2000 SPR instrument (Biosensing Instrument Inc.) was used for all SPR experiments in this study. The bare Au sensor chip was obtained from Biosensing Instrument Inc. The preparation of Au sensor chip can be referred to our previous published paper (Liu et al., 2014). A flow delivery system incorporated in the BI‐SPR platform pumped samples onto the SPR sensor chip at a flow rate of 10 μl/min. The 0.01 M PBS (pH = 6.0) buffer was used as the running buffer. The BI‐SPR 2000 control software (version 2.2.0.) was used to perform instrument operation and data processing. The Varioskan Flash (Multiskan GO 1510, Thermo Fisher Scientific) was used for the α‐amylase inhibitory activity and DPPH radical assays.
Binding assay of three flavonoids to α‐amylase was carried out using the SPR sensor. The immobilization of α‐amylase on the chip surface was performed using a standard amine coupling procedure as described previously (Liu, Luo, Li, She, & Gao, 2017). […] After the stable baseline was obtained, different concentrations of flavonoids (50–800 μM) were injected over the chip surface coated with α‐amylase, respectively. The SPR angle was monitored until the baseline stabilization. To enable reuse of the SPR chip, the chip surface could be regenerated using 2 mM NaOH after each measurement. Regeneration parameters were based on the strength of interaction between the analyte and α‐amylase. The chip surface was rinsed by PBS between each step. All the experiments were repeated three times, and kinetic parameters (ka, kd) were deduced by nonlinear fitting of the primary sensorgram data based on the 1:1 Langmuir‐binding model using the BI‐SPR 2000 control software (version 2.2.0.). The model has been widely used in protein–ligand binding analysis and can be calculated through the following formula (Gombau et al., 2019; Islam, Shen, Gurgel, Rojas, & Carbonell, 2014; Lee, Jeong, Jones, & Kim, 2011):(1) dR/dt=kaCRmax-R-kdR where R is the SPR signal at time t, and C is the concentration of the analyte. R max is the maximum analyte binding capacity in SPR signal. ka is the association rate constant and kd is the dissociation rate constant.
In general terms: Surface plasmon resonance follows binding to a sensor surface in real time, without labels.

The target of assay [2] is T1, α-amylase. The assay is described as follows: SPR: effect of pH and salt on the interaction between flavonoids and α-amylase. It counts as binding. To be noted: flavonoid 200 μM; for optimal CaCl2 concentration for binding with α-amylase: CaCl2 0.04-0.2 M; for optimal MgCl2 concentration for binding with α-amylase: MgCl2 0.02-0.25 M. The method, then:
The effect of pH on the interaction between three flavonoids and α‐amylase was carried out within the pH range (3–9) based on the method described in the above experiment. As is known to all, metal ions play a crucial role in maintaining normal physiological function of the α‐amylase. Moreover, salt is also widely used in food industry. To evaluate whether KCl, MgCl2, and CaCl2 can interfere with the interaction between flavonoids and α‐amylase, a series of 200 μM flavonoids with a various concentrations of KCl (0.02–0.3 M), MgCl2 (0.02–0.25 M), or CaCl2 (0.04–0.2 M) solutions were flowed over the chip surface modified with α‐amylase, respectively.

In assay [3] the target is T1, α-amylase. The assay is described as follows: Inhibition kinetics of α-amylase by Lineweaver-Burk plots. Format: biochemical. To be noted: for Inhibitory type: Lineweaver-Burk plots, starch 0.25-1.25 mg/ml. The method, then:
To further explore the inhibitory type of three flavonoids on α‐amylase, kinetic analysis was carried out by using Lineweaver–Burk plots. Starch was used as substrate, and the inhibition kinetics of α‐amylase was evaluated by varying four different concentrations (0.25, 0.50, 1.00, and 1.25 mg/ml) of starch in the absence or presence of three flavonoids. The Lineweaver–Burk plots of the three flavonoids can be obtained from the double‐reciprocal plots between 1/[S] (starch concentration) and 1/[V] (reaction rate). Besides, different concentrations of flavonoids (0, 5, and 10 μM) were used and the three Lineweaver––Burk plots for each flavonoid can be obtained. The Ki (inhibition constant) value was obtained from the least‐squares regression line of the slopes of Lineweaver–Burk plots versus the corresponding flavonoid concentrations [I] (Kandra, Gyémánt, Zajácz, & Batta, 2004; Yang et al., 2014). The formula is(3) slope=Km/Vmax1+[I]/Ki Ki = intercept of Equation (3) on x axis (Yang et al., 2014)

A short description of assay [4]: DPPH radical assay without or with α-amylase. To be noted: mean ± RSD (n = 3); for Inhibition (%) of antioxidant activity by binding to α-amylase: (add α-amylase IC50 − not add α-amylase IC50)/not add α-amylase IC50. Background: Loss of DPPH colour is used to gauge radical scavenging.
Experimental: The DPPH assay was performed to assess effect of α‐amylase on antioxidant activity of three flavonoids as following procedure (Kim et al., 2014). 2 mM DPPH solution was prepared by dissolving 0.0787 g of DPPH in 100 ml of anhydrous ethanol and stored at −20°C. α‐Amylase (300 μM) and three flavonoids (2.5–125 μM) were prepared with PBS (pH = 6.0) and ethanol, respectively. Samples were prepared by mixing flavonoids solution (without or with 10 μl α‐amylase), 100 μl of DPPH, and anhydrous ethanol. Then, samples were incubated for 10 min at room temperature. Absorbance at 517 nm was measured in the spectrophotometer. DPPH radical scavenging activity was calculated as follows (Liu et al., 2017):(4) DPPHradicalscavengingactivity(%)=1-Ai-Aj/Ac×100% in which AC is the absorbance of the DPPH (100 μl DPPH and 100 μl ethanol), Ai is the absorbance of the DPPH and sample (100 μl DPPH, 50 μl flavonoids, and 50 μl ethanol, or 100 μl DPPH, 50 μl flavonoids, 10 μl α‐amylase, and 40 μl ethano1), and Aj is the absorbance of the blank sample (50 μl flavonoids and 150 μl ethanol). All experiments were carried out in triplicate, and the results were expressed as mean ± RSD. IC50 values were obtained based on plotting the percentage of DPPH radical scavenging activity against the flavonoids concentration.
The mark [5] stands for this setting: with 10 μl α-amylase (300 μM), read-out: Add α-amylase IC50 (DPPH radical scavenging).
Where [6] appears, read: without α-amylase, read-out: Not add α-amylase IC50 (DPPH radical scavenging).

Where two headings read alike, the source gives them in different places. Marks after values point to notes of the source that are not given here.

T1 sequence (P00691 42-659): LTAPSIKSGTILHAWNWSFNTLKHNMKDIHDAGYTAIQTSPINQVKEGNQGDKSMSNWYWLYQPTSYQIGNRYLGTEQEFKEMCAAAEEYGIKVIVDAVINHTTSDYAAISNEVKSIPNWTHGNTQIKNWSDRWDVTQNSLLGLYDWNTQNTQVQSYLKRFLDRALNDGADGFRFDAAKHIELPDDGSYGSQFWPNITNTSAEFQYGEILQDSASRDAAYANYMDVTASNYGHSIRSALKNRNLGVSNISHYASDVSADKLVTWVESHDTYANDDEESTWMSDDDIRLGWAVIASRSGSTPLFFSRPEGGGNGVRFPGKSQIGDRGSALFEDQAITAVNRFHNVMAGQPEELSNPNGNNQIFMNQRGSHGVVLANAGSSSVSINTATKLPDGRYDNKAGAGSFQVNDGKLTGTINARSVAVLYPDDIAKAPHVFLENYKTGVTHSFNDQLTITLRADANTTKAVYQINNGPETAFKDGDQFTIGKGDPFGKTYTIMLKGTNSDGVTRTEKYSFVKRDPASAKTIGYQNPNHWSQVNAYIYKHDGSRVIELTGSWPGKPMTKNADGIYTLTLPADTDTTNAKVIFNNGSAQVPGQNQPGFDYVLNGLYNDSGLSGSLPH

For `COc1ccc(-c2cc(=O)c3c(O)cc(O[C@@H]4O[C@H](CO[C@@H]5O[C@@H](C)[C@H](O)[C@@H](O)[C@H]5O)[C@@H](O)[C@H](O)[C@H]4O)cc3o2)cc1` [Buddleoside], at α-amylase [1], binding was characterised by a dissociation constant (Kd) of 3300 ± 80 µM, the kon was 2.54 ± 0.2 M⁻¹ s⁻¹ and the koff is 0.0083 ± 0.00015 s⁻¹. Further, at α-amylase [2], the “optimal CaCl2 concentration for binding with α-amylase” value (“optimal CaCl2 concentration” below) came out at 0.100 M and the “optimal MgCl2 concentration for binding with α-amylase” value (“optimal MgCl2 concentration” for short) is on record as 0.120 M. Also, at α-amylase [3], the Ki (as a rule, the equilibrium dissociation constant of an inhibitor or competing ligand from its target) is 43.5 µM and the Inhibitory type result is “Noncompetitive”. The “Inhibition (%) of antioxidant activity by binding to α-amylase” value in assay [4] is reported as 21.65 ± 0.04^a %. Further, the IC50 – broadly, the point on the concentration scale where inhibition reaches its midpoint – in assay [4] (setting [5]) is 79.13 ± 0.012 µM. In addition, the IC50 in assay [4] (setting [6]) stood at 65.05 ± 0.02 µM.

Turning to `COc1ccc(-c2cc(=O)c3c(O)cc(O)cc3o2)cc1` [Acacetin, acacetin], on α-amylase [1], the affinity, expressed as Kd, was 2920 ± 200 µM; the kon worked out at 2.76 ± 6 M⁻¹ s⁻¹; the koff came out at 0.008 ± 0.00015 s⁻¹. Further, at α-amylase [2], the “optimal CaCl2 concentration” value came out at 0.100 M and the “optimal MgCl2 concentration” value is on record as 0.120 M. At α-amylase [3], the Ki was determined as 39.7 µM and the Inhibitory type result is recorded as “Noncompetitive”. Besides, the IC50 in assay [4] (setting [5]) was 77.8 µM. In addition, the half-inhibitory concentration (IC50) in assay [4] (setting [6]) is 61.3 µM.

With `O=c1cc(-c2ccc(O)c(O)c2)oc2cc(O)cc(O)c12` [Luteolin, luteolin], the Kd (usually the free concentration of one partner at which half of the binding sites on the other are occupied at equilibrium, for simple one-to-one binding) on α-amylase [1] (SPR, 1:1 model, pH 6.0, mean ± RSD (n = 3), read-out: KD (equilibrium dissociation constant)) was determined as 1970 ± 120 µM. On α-amylase [1], the kon came out at 4.12 ± 0.1 M⁻¹ s⁻¹ and the koff came to 0.00808 ± 0.00011 s⁻¹. Moreover, at α-amylase [2], the “optimal CaCl2 concentration” value was found to be 0.120 M and the “optimal MgCl2 concentration” value was 0.150 M. The Inhibitory type result at α-amylase [3] was “Noncompetitive”. In addition, at α-amylase [3] (slopes of Lineweaver-Burk plots vs flavonoid concentration (0, 5, 10 μM), starch substrate, read-out: Ki), the inhibitory constant (Ki) came out at 26.8 µM. For the same compound, the “Inhibition (%) of antioxidant activity by binding to α-amylase” value in assay [4] is listed as 49.93 ± 0.037^c %. The IC50 in assay [4] (setting [5]) stood at 75.2 µM. Also, in assay [4] (setting [6]), the IC50 came out at 50.1 µM.
